Source: patent US20260049101A1, “TOPICAL TREATMENT OF SKIN CANCER USING OLIGOPEPTIDES” (BACOBA AG, priority 2022, published 2026)
pIC50: −log10 of the molar value. Entries after “also recorded” stand apart in the source; their conditions may differ. Like-named read-outs stand apart in the source and are kept apart here. Square brackets hold non-standard residues; d marks the D form. Peptide text beside a SMILES is read from it. * marks the point of attachment. NH(1-CH2NMe2-cBu) = CN(C)CC1(N*)CCC1; Benzoyl(4-F) = O=C(c1ccc(F)cc1)*; hCha = N[C@@H](CCC1CCCCC1)C(=O)O; Aib = CC(C)(N)C(=O)O; βAla = NCCC(=O)O

How the values were obtained:
[1] = test system: cutaneous melanoma M010817; settings: read-out: IC50 M010817
Experimental: (§1) For the maintenance of healthy human fibroblast cell culture Dulbecco's Modified Eagle Medium (DMEM, Cat #11966025, Gibco) supplemented with 10% heat-inactivated fetal bovine serum (Cat #S006420H01, BioWest) was used. For the maintenance of melanoma cell cultures RPMI-1640 (Cat #R0883, Gibco) supplemented with L-glutamine (Cat #25030-081, Gibco), 1 mM sodium pyruvate (Cat #S8636, Sigma-Aldrich), 10% heat-inactivated fetal bovine serum (Cat #S006420H01, BioWest) and 1% Penicillin-Streptomycin (Cat #15140122, Gibco) was used. The MyLa_CTCL cell cultures were cultivated in RPMI 1640 Medium (R0883) supplemented with 2 mM L-Glutamine (G7513), 10 U/ml IL-2 (H7041), 10 U/ml IL-4 (H7291) and 10% Human AB Serum (H4522). The cutaneous squamous cell carcinoma cell cultures A431 and SCC13 were cultivated in Dulbecco's Modified Eagle Medium (DMEM, Cat #11966025, Gibco) supplemented with 10% heat-inactivated fetal bovine serum (Cat #S006420H01, BioWest).
(§2) To determine the half maximal inhibitory concentrations (IC50's) serial dilution of compounds in DMSO to 1000× was performed (10 mM, 5 mM, 1 mM, 500 μM, 250 μM, 100 μM, 10 μM, 1 μM). 2 μl of these dilutions were further diluted in 198 μl growth medium with supplements, mixed well and 10 μl were further dispensed in triplicates to the 96-well plates containing cells in 90 μl.
(§3) For each drug condition and cell culture (for each row of the triplicate) a well with only RPMI-1640 complete/KSFM/DMEM media and one with media and DMSO were made as controls. DMSO was never at a higher concentration than 0.2% v/v. Triplicates were seeded for each condition. On the day of the assay, the medium was exchanged with cell culture media containing 0.1% of Resazurin-sodium salt stock solution (stock: 0.015 mg/ml, in PBS, Cat #R7017, Sigma-Aldrich). […] With a fluorescence-based plate reader (Infinite M200 Pro, Tecan, Switzerland) using excitations between […] and emissions at 590 nM the cell-culture plates were readout. The calculations and graphs are performed with GraphPad Prism program. Vehicle treated wells were set to 100% viability.

[2] = test system: cutaneous melanoma M150507; settings: read-out: IC50 M150507
Experimental: as §1, §2, §3

M130107 = settings: read-out: IC50 M130107
Experimental: as §1, §2, §3

[3] = test system: cutaneous T cell lymphoma MyLa_CTCL; settings: read-out: IC50 MyLa_CTCL
Experimental: as §1, §2, §3

[4] = test system: cutaneous melanoma M150672; settings: read-out: IC50 M150672
Experimental: as §1, §2, §3

[5] = test system: B16F10 xenografts in C57BL/6 mice; assay: In vivo efficacy test, dermal treatment of intradermal B16-F10 tumours (tumour volume); set-up: species or system mouse; settings: for T/C [%] (ratio of mean tumour volume of treated over control) / RTV Mean / RTV Median / Tumour Volume [cm^3] Mean / Tumour Volume [cm^3] Median: 20 μl of 5% 6027 dermally daily from day 1; for RTV Mean / RTV Median / Tumour Volume [cm^3] Mean / Tumour Volume [cm^3] Median: n=8
Experimental: (§4) In vivo efficacy test methodology. C57Bl/6 mice (Janvier Labs); females; 6-8 weeks old at beginning of the treatment. The tumour was induced through intradermal inoculation of 1×10^5 cells per mouse intradermally in the skin of the neck. A total of 24 mice were used (n=8 for vehicle, n=8 for 5% 6027, n=8 for leucinostatin A 0.2%). Test item was applied starting on day 1 after inoculation of the tumour cells. The test items of 20 μl of 5% 6027 and of 0.2% Leucinostatin A were applied dermally with a pipette once a day every day for up to 21 days to the intact skin area of about 1 cm^2 on the site were the B16-F10 cells had been injected. If ulceration occurred then the animal was removed from the test and sacrificed.
The read out was tumour volume measured three times a week expressed as tumour volume (in cm^3). Additionally, tumour samples were taken for histological analysis (Tumour FFPE) (2 mice per group).

[6] = test system: cutaneous squamous cell carcinoma cell line SCC12; assay: In vitro anti-proliferative assay (resazurin) in SCC12; type: cell-based; settings: SCC12, 72 hours
From the text: Methodology. The cutaneous squamous cell carcinoma cell culture SCC12 was cultivated in keratinocyte-SFM media (KSFM, Cat #17005042, Gibco) supplemented with human recombinant epidermal growth factor 1-53 (EGF 1-53) and bovine pituitary extract (BFE).
Vehicle treated wells were set to 100% viability.

[7] = test system: patient derived Basal Cell Carcinoma (BCC); assay: Ex vivo patient-derived nodular BCC (Example 10), Ki67; type: cell-based, human; settings: 500 nM, 4 days, compared to Vismodegib (20 μM); p<0.002
Experimental: Tumour material was harvested from a nodular basal cell carcinoma (BCC) from a patient's upper back.
Vismodegib (20 μM) was used as a positive control.

[8] = test system: patient derived high grade cutaneous squamous cell carcinoma (cSCC); assay: Ex vivo patient-derived high grade cSCC (Example 11), Ki67; type: cell-based, human; settings: 500 nM, 4 days, vs DMSO; p<0.003
From the text: Tumour material was harvested from high grade cutaneous squamous cell carcinoma (cSCC) from a patient's head.

[9] = test system: patient derived Basal Cell Carcinoma (BCC); type: cell-based, human; settings: 500 nM, 4 days, vs DMSO
[10] = Dermal tolerability in the in vivo efficacy test; set-up: species or system mouse; settings: 20 μl of 5% 6027 once a day
Experimental: as §4

## CC(C)C[C@H](NC(=O)[C@H](CCC1CCCCC1)NC(=O)[C@@H]1CCCN1C(=O)c1ccc(F)cc1)C(=O)NC(C)(C)C(=O)N[C@@H](CC(C)C)C(=O)N[C@@H](CC(C)C)C(=O)NC(C)(C)C(=O)NC(C)(C)C(=O)NCCC(=O)NC1(CN(C)C)CCC1 [Compound 6027, (2S)-2-[(2S)-4-cyclohexyl-2-{[(2S)-1-(4-fluorobenzoyl)pyrrolidin-2-yl]formamido}butanamido]-N-(1-{[(1S)-1-{[(1S)-1-({1-[(1-{[2-({1-[(dimethylamino)methyl]cyclobutyl}carbamoyl)ethyl]carbamoyl}-1-methylethyl)carbamoyl]-1-methylethyl}carbamoyl)-3-methylbutyl]carbamoyl}-3-methylbutyl]carbamoyl}-1-methylethyl)-4-methylpentanamide] ({Benzoyl(4-F)}-P[hCha]L[Aib]LL[Aib][Aib][βAla]-{NH(1-CH2NMe2-cBu)})
[1]
  pIC50: 7.22
[2]
  pIC50: 7.25
M130107
  pIC50: 6.77
[3]
  pIC50: 6.35
[4]
  pIC50: 6.91
[5]; day 1
  T/C [%] (ratio of mean tumour volume of treated over control): 100%
  RTV Mean: 1.0
  RTV Median: 1.0
  Tumour Volume [cm^3] Mean: 0.001 cm^3
  Tumour Volume [cm^3] Median: 0.001 cm^3
[5]; day 2
  T/C [%] (ratio of mean tumour volume of treated over control): 100%
  RTV Mean: 1.0
  RTV Median: 1.0
  Tumour Volume [cm^3] Mean: 0.001 cm^3
  Tumour Volume [cm^3] Median: 0.001 cm^3
[5]; day 4
  T/C [%] (ratio of mean tumour volume of treated over control): 100%
  RTV Mean: 1.0
  RTV Median: 1.0
  Tumour Volume [cm^3] Mean: 0.001 cm^3
  Tumour Volume [cm^3] Median: 0.001 cm^3
[5]; day 7
  T/C [%] (ratio of mean tumour volume of treated over control): 71%
  RTV Mean: 8.8
  RTV Median: 9.0
  Tumour Volume [cm^3] Mean: 0.009 cm^3
  Tumour Volume [cm^3] Median: 0.009 cm^3
[5]; day 9
  T/C [%] (ratio of mean tumour volume of treated over control): 64%
  RTV Mean: 28.4
  RTV Median: 25.5
  Tumour Volume [cm^3] Mean: 0.028 cm^3
  Tumour Volume [cm^3] Median: 0.026 cm^3
[5]; day 10
  T/C [%] (ratio of mean tumour volume of treated over control): 35%
  RTV Mean: 29.9
  RTV Median: 25.5
  Tumour Volume [cm^3] Mean: 0.030 cm^3
  Tumour Volume [cm^3] Median: 0.026 cm^3
[5]; day 11
  T/C [%] (ratio of mean tumour volume of treated over control): 33%
  RTV Mean: 44.6
  RTV Median: 31.0
  Tumour Volume [cm^3] Mean: 0.045 cm^3
  Tumour Volume [cm^3] Median: 0.031 cm^3
[5]; topical treatment with 5% 6027 vs vehicle
  reduction of tumour growth: significant reduction of tumour growth
[6]
  pIC50: 6.93
[7]
  cell proliferation (Ki67): significantly reduced
[8]
  cell proliferation (Ki67): significantly reduced
[9]
  apoptotic cells (TUNEL positive cells): Significant increase
  cell proliferation (Ki67): significantly reduced
[10]
  skin irritations or other side effects: No skin irritations or other side effects were observed; also recorded: did not show skin irritations
  tolerability of dermal treatment: well tolerated
